Source: PubChem BioAssay (NCI)
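Briefly, cells in 96-well plates were exposed to five compound concentrations for 48 h, and endpoints were estimated by linear interpolation. At the GI50, growth is halved. TGI denotes the concentration required for complete inhibition of growth.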

Tests used:
Experiment in all cases: NCI-60 cell line screen, 48 h
BT-549 breast = system: BT-549 breast
SK-MEL-5 melanoma = system: SK-MEL-5 melanoma
HS 578T breast = system: HS 578T breast
SNB-75 CNS = system: SNB-75 CNS
MDA-MB-435 = system: MDA-MB-435
SF-268 CNS = system: SF-268 CNS
TK-10 renal = system: TK-10 renal
HCT-15 colon = system: HCT-15 colon

Row | SMILES | GI50 (BT-549 breast) [µM] | TGI (BT-549 breast) [µM] | GI50 (SK-MEL-5 melanoma) [µM] | TGI (SK-MEL-5 melanoma) [µM] | GI50 (HS 578T breast) [µM] | TGI (HS 578T breast) [µM] | GI50 (SNB-75 CNS) [µM] | TGI (SNB-75 CNS) [µM] | GI50 (MDA-MB-435) [µM] | TGI (MDA-MB-435) [µM] | GI50 (SF-268 CNS) [µM] | TGI (SF-268 CNS) [µM] | GI50 (TK-10 renal) [µM] | TGI (TK-10 renal) [µM] | TGI (HCT-15 colon) [µM] | GI50 (HCT-15 colon) [µM]
1 | c1ccc(CNc2nc(Nc3ccccc3)nc3ccccc23)cc1 | 1.9 | 3.97 | 1.41 | 2.76 | 2.17 | 6.01 | 1.93 | 6.5 | 1.72 | 3.67 | 3.01 | 9.3 | 2.02 | 4.53 | – | –
2 | CC(Br)C(=O)Nc1ccc(C(=O)O)c(O)c1 (stereo unspecified) | – | > 100 | – | > 100 | – | > 100 | – | > 100 | – | > 100 | – | > 100 | – | > 100 | > 100 | –
3 | C=C1[C@@H]([C@@]2(C)C=CC(=O)C(C)(C)[C@@H]2CC(=O)OC)CC[C@@]2(C)C(c3ccoc3)OC(=O)[C@H]3O[C@]132 (stereo partly specified) | – | > 100 | – | > 100 | – | > 100 | – | > 100 | – | > 100 | – | > 100 | – | > 100 | > 100 | –
4 | CCn1c2ccccc2c2cc(C(O)c3cccc4ncccc34)ccc21 (stereo unspecified) | 0.0702 | 15.6 | 0.0465 | 1.57 | 0.0505 | 23.5 | 0.0254 | 34.1 | 0.0215 | 0.06 | 0.068 | > 73.6 | 3.7 | > 78.6 | 12.1 | 0.0409
5 | COc1ccc(C2=CC(c3ccc(OC)c(OC)c3)c3c(c4ccccc4oc3=O)O2)cc1OC (stereo unspecified) | 92.6 | > 100 | 0.363 | > 25.4 | 0.957 | > 26.9 | 0.341 | 2.17 | 0.244 | 0.831 | 3.46 | > 100 | > 24.9 | > 100 | > 100 | 1.58
6 | CN(/N=N/c1nc(OCc2ccccc2)c2[nH]cnc2n1)C(=O)Oc1ccc([N+](=O)[O-])cc1 | 7.35 | 20.4 | 6.89 | 16.3 | 8.61 | 29.6 | – | – | 12.4 | 39.8 | 9.44 | 29.5 | 12 | 34 | 20 | 8.9
7 | C=CS(=O)(=O)CCN1CC1 | – | > 10 | – | > 10 | – | > 10 | – | > 10 | – | > 10 | – | > 10 | – | > 10 | > 10 | –
8 | COc1ccc(Nc2c3ccccc3nc3[nH]c4ccccc4c23)cc1 | 13.7 | > 50 | 5.52 | > 50 | 21 | > 50 | – | – | 8.92 | > 50 | 17.2 | > 50 | 26.7 | > 50 | > 50 | 8.33
9 | O=S(=O)(NCCNc1nccc(-c2c(-c3ccc(F)cc3)nc3sccn23)n1)c1ccccc1 | – | – | 2.45 | 13.7 | 13.6 | > 100 | 1.61 | 56.2 | 2.56 | > 100 | 6.63 | > 100 | 9.41 | 73.5 | > 100 | 3.07
10 | C=CCCCc1ccc(C(O)CCCCCCCCCCCC)o1 (stereo unspecified) | 22.6 | 43.3 | 18.5 | 37.2 | 25.5 | 55.2 | 15.5 | 32 | 26.2 | 58.7 | 16.1 | 35 | 21 | 38.3 | 30.3 | 15.5
11 | Cc1c(Sc2ccccc2)[n+](=O)c2cc(Cl)c(Cl)cc2n1[O-] | 27.8 | 58.9 | 54.1 | > 100 | > 100 | > 100 | > 100 | > 100 | 95.6 | > 100 | > 100 | > 100 | 26.1 | 70.6 | > 100 | 53.7
12 | COc1cc(/C=C/C(=O)c2cccnc2Nc2ccc(F)cc2)cc(OC)c1OC | 2.7 | 6.72 | 2.51 | 8.24 | 3.68 | 95.2 | 1.93 | 8.51 | 3.05 | 69.3 | 4.18 | 17.6 | 3.52 | 9.5 | 5.95 | 2.28
13 | COc1ccc(Nc2cc(C)nc(N3CCN(c4ccnc5cc(Cl)ccc45)CC3)n2)cc1 | 2.22 | 8.06 | 1.67 | 3.35 | 4.04 | > 100 | 2.47 | 13.4 | 1.06 | 6.43 | 4.7 | > 100 | 3.64 | 47.6 | > 100 | 2.06
14 | Cc1ccc(-c2nc(N3CCCNCC3)c3oc(-c4ccc(C)cc4)nc3n2)cc1 | 16.3 | 35 | – | – | 12.6 | 31.9 | 1.66 | 3.02 | 1.78 | 3.17 | 1.77 | 3.48 | 2.08 | 3.96 | 2.96 | 1.49
15 | CN1C(Cl)=NS(=O)(=O)c2ccccc21 | – | > 100 | – | > 100 | – | > 100 | – | – | – | > 100 | – | > 100 | – | > 100 | > 100 | –
16 | CNC(=O)OCC1C2=C(C(=O)C(C)=C(N)C2=O)N2CC3C(N3C)C12OC (stereo unspecified) | – | > 100 | – | 23.8 | – | – | – | – | – | > 100 | – | – | – | > 100 | 27 | –
17 | COc1cc(Cl)cc(-c2nn(-c3cccc(NC(=O)Nc4ccc(Cl)c(C(F)(F)F)c4)c3)cc2-c2ccncc2)c1 | 2.38 | 6.66 | 1.54 | 2.93 | 4.29 | 67.7 | 1.77 | 11.1 | 1.76 | 4.36 | 2.66 | 12.1 | – | – | 2.4 | 0.493
